Laboratory results published in patent US12227494B2, “Polymorphisms of HM30181 mesylate” (ATHENEX R&D, LLC, priority 2020, dated 2025).
Entries after “also recorded” stand apart in the source; their conditions may differ.

Legend:
[1] = XRPD of polymorphs after air-drying or vacuum-drying (solid form stability); format: physicochemical; conditions: for Crystallinity / XRPD pattern after air-drying: air-dried (overnight); for Crystallinity / XRPD pattern after vacuum-drying: vacuum dried overnight (80° C.)
Description: Large scale studies were performed with HM30181 mesylate Type A starting material on a 200 mg scale as described below. Solids were isolated by vacuum filtration. The wet cakes from filtration from DMA, DMF, and NMP slurries were washed with 1 mL to 2 mL methanol to remove solvents. […]
XRPD was performed using a Panalytical X'Pert3™ Powder XRPD and on a Si zero-background holder. The 2θ position was calibrated against a Panalytical™ 640 Si powder standard. Details of XRPD used in the experiments are listed below in Table 20.

[2] = 1H-NMR check for disproportionation or degradation; format: physicochemical; conditions: large scale polymorph samples, DMSO-d6
From the text: At large scale, a slurry of HM30181 mesylate Type A starting material in methanol at ambient conditions generated a mixture of HM30181 mesylate Type B and HM30181 mesylate Type A after 9 days (see FIG. 32). After 14 days, the slurry in methanol generated a HM30181 mesylate Type N polymorph. […] A scaled-up slurry of HM30181 mesylate Type A starting material in DMA yielded HM30181 mesylate Type E after 6 days (see FIG. 35). […] A scaled-up slurry of HM30181 mesylate Type A starting material in DMF at 50° C. yielded HM30181 mesylate Type F rather than the expected HM30181 mesylate Type G after 9 days (see FIG. 36). […] This slurry was heated in an attempt to generate HM30181 mesylate Type G. A scaled-up slurry of HM30181 mesylate Type A starting material in DMF at 100° C. yielded HM30181 mesylate Type F after 2 days (see FIG. 37). A scaled-up slurry of HM30181 mesylate Type A starting material in DMF at 150° C. yielded a previously unobserved XRPD pattern after 5 days (see FIG. 37).
By 1H-NMR, HM30181 mesylate Type E contained DMA, HM30181 mesylate Type F contains DMF, and HM30181 mesylate Type N contains MeOH.
Proton NMR were obtained using a Varian 200M™ NMR in deuterated DMSO (DMSO-d6).

Row | Compound | Crystallinity / XRPD pattern after air-drying [1] | Crystallinity / XRPD pattern after vacuum-drying [1] | Disproportionation or degradation by 1H-NMR [2] | Crystallinity / XRPD pattern after air-drying ([1]; listed as Type I)
1 | COc1cc2c(cc1OC)CN(CCc1ccc(-n3nnc(-c4cc(OC)c(OC)cc4NC(=O)c4cc(=O)c5ccccc5o4)n3)cc1)CC2.CS(=O)(=O)O [HM30181 mesylate Type C, HM30181 mesylate] | no significant change | no loss of crystallinity was detected; also recorded: No change in crystalline pattern | no disproportionation or degradation was detected | 
2 | COc1cc2c(cc1OC)CN(CCc1ccc(-n3nnc(-c4cc(OC)c(OC)cc4NC(=O)c4cc(=O)c5ccccc5o4)n3)cc1)CC2.CS(=O)(=O)O [HM30181 mesylate Type D, HM30181 mesylate] | Some loss of crystallinity; also recorded: No change in crystalline pattern |  |  | 
3 | COc1cc2c(cc1OC)CN(CCc1ccc(-n3nnc(-c4cc(OC)c(OC)cc4NC(=O)c4cc(=O)c5ccccc5o4)n3)cc1)CC2.CS(=O)(=O)O [HM30181 mesylate Type E, HM30181 mesylate] |  | no loss of crystallinity; also recorded: No change in crystalline pattern | no disproportionation or degradation was detected | 
4 | COc1cc2c(cc1OC)CN(CCc1ccc(-n3nnc(-c4cc(OC)c(OC)cc4NC(=O)c4cc(=O)c5ccccc5o4)n3)cc1)CC2.CS(=O)(=O)O [HM30181 mesylate Type F, HM30181 mesylate] |  | Some change of pattern; also recorded: significant reduction in crystallinity | no disproportionation or degradation was detected | 
5 | COc1cc2c(cc1OC)CN(CCc1ccc(-n3nnc(-c4cc(OC)c(OC)cc4NC(=O)c4cc(=O)c5ccccc5o4)n3)cc1)CC2.CS(=O)(=O)O [HM30181 mesylate Type G, HM30181 mesylate] | No reduction in crystallinity |  |  | 
6 | COc1cc2c(cc1OC)CN(CCc1ccc(-n3nnc(-c4cc(OC)c(OC)cc4NC(=O)c4cc(=O)c5ccccc5o4)n3)cc1)CC2.CS(=O)(=O)O [HM30181 mesylate Type I, HM30181 mesylate] | yielded HM30181 mesylate Type J |  |  | Type J on air-drying
7 | COc1cc2c(cc1OC)CN(CCc1ccc(-n3nnc(-c4cc(OC)c(OC)cc4NC(=O)c4cc(=O)c5ccccc5o4)n3)cc1)CC2.CS(=O)(=O)O [HM30181 mesylate Type N, HM30181 mesylate] |  | some loss of crystallinity | no disproportionation or degradation was detected | 
